pIC50: −log10 of the molar value.
Tests used:
KDM4A = assay: MALDI–TOF MS screen of biotin-tagged H2a(1–20)R3X peptides with KDM4A; type: biochemical, human; settings: for RDM activity: initial screen, biotinylated peptides
Text: (§1) To investigate whether histone H2a is a JmjC-KDM substrate, we initially used mass spectrometry (MS) to screen a set of biotinylated N-terminal H2a(1–20) peptides with post-translational modifications (PTMs) at Arg-3, i.e. asymmetrically/symmetrically di-methylated Arg-3 (H2aR3me2a, H2aR3me2s, respectively), mono-methylated Arg-3 (H2aR3me1) and citrullinated Arg-3 (H2aR3Ci), against KDM4A, KDM4D, KDM4E and KDM5C. […] H2a(1–20)R3me2a, which appeared to be the most efficient RDM substrate in the screen, was then re-synthesised without a biotin tag and tested for RDM activity using the catalytic domains of all KDM4/KDM5 subfamily members.
(§2) MS-based screening assays with peptides and calf thymus histones were as reported; see Supplementary Table 6 for conditions. Time course assays were based on reported procedures. In brief, equal volumes of the enzyme and substrate solutions were combined to initiate the reaction; 10 µL of 2% (v/v) formic acid (HCOOH) in ddH2O or 100% methanol was added to 10 µL of the reaction mixture to quench reactions at different time points. Unless otherwise stated, time course assays were carried out in triplicate. In some cases, LC–MS was used instead of MALDI-TOF MS to avoid a MALDI matrix induced artefact with the hydroxylated product (Supplementary Fig. 16).
(§3) Supplementary Figure 1 Initial Screen of H2a fragments with KD M4 A, KDM4D, KDM4E, and KDM5C.
(§4) KDM4D, KDM4E, and KDM5C with H2a(1–20)R3X peptides from the AltaBioscience peptide library (Set 5) […]
(§5) (potentially), KDM4E, and KDM5C with H2a(1–20)R3me2a; KDM4E and KDM5C with H2a(1–20)R3me2s; and KDM5C wit h H2a(1–20 )R3 me1 . +1 6 Da mass shift s corr esponding t o hydr oxylat ion, were observed wit h […]
(§6) 20), and H2a(1–20)Ci3 (only with KDM4E).
(§7) H 2 a( 1–20)Ci3 and KDM5C with H2a(1–20 ) . […]
(§8) peptides except H2a(1–20)R3me2a. * Low-level peaks indicating ~10% demethylation. Experiments were repeated with the same results. For assay conditions see Supplementary Table 6 (n = 2, independent assays). Peptides were synthesised linked with C-terminal Nε-(D-biotin)-L- ly si ne -amide group (see
(§9) Supplementary Table 5 ) . […]
(§10) (1 picture or pasted object on this page, not shown here)
(§11) [ E nz ym e] [Peptide] [2OG] [Ascorbate] [(NH4)2F e(S O4)2] [TCEP] Buffer pH7.5 Enzyme Cognate substrate (mM) (mM) (mM) (mM) (mM) (mM) [HE PE S]
(§12) Supplementary Table 6 Summary of MS assay conditions for substrate screening. These conditions enabled efficient turnover of established substrates. Reactions were carried out at 37 °C unless otherwise st ated. […]

KDM4D = assay: MALDI–TOF MS screen of biotin-tagged H2a(1–20)R3X peptides with KDM4D; type: biochemical, human; settings: 60 min, n = 2
Text: as §1, §2, §3, §4, §5, §6, §7, §8, §9, §10, §11, §12

KDM4E [1] = biological target: T1, KDM4E (Homo sapiens, UniProt B2RXH2); assay: MALDI–TOF MS screen of biotin-tagged H2a(1–20)R3X peptides with KDM4E; type: biochemical; settings: for +16 Da mass shift (hydroxylation) / −14 Da mass shift (demethylation): 60 min, KDM4E, MALDI–TOF MS, n = 2; for RDM activity: initial screen, biotinylated peptides
T1 construct: KDM4E1–337; made in house; host or cells: E. coli
T1 sequence (B2RXH2 1-337): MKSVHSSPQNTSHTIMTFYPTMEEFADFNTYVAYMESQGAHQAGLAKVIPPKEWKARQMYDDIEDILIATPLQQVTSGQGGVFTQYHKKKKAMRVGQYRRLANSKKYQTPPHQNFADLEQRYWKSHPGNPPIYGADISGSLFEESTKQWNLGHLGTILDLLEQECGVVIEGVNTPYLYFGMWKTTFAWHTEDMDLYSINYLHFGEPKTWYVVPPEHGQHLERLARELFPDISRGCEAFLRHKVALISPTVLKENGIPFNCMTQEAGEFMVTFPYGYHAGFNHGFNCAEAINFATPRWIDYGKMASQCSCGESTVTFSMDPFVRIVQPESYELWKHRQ
Text: as §1, §2, §3, §4, §5, §6, §7, §8, §9, §10, §11, §12

KDM5C = biological target: T2, KDM5C (Homo sapiens, UniProt P41229); assay: MALDI–TOF MS screen of biotin-tagged H2a(1–20)R3X peptides with KDM5C; type: biochemical; settings: for mass shift / −14 Da mass shift (demethylation): 60 min, KDM5C, MALDI–TOF MS, n = 2; for RDM activity: initial screen, biotinylated peptides
T2 construct: KDM5C 1– 765; made in house; host or cells: Sf9 cells
T2 sequence (P41229 1-765): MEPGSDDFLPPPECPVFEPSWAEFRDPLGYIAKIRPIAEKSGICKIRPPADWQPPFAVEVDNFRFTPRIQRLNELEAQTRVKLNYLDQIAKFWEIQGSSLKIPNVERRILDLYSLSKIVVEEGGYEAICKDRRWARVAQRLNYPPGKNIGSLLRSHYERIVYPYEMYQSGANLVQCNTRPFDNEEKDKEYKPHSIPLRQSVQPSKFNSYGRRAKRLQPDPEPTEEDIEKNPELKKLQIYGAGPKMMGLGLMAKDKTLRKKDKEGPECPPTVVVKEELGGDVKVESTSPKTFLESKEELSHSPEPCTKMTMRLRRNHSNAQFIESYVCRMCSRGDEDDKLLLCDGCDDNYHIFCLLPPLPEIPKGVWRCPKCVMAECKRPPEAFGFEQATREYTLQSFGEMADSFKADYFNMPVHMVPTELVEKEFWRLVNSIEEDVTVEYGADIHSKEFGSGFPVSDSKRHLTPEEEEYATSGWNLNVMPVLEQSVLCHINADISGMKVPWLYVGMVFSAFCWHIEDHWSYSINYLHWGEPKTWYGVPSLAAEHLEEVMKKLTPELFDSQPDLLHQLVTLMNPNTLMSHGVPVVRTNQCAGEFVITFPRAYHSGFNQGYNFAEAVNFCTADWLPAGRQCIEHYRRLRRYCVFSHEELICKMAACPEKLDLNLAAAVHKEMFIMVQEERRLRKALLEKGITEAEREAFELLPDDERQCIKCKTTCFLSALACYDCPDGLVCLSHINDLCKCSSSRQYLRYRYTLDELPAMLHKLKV
Text: as §1, §2, §3, §4, §5, §6, §7, §8, §9, §10, §11, §12

KDM4E [2] = biological target: T1, KDM4E; assay: Inhibition of KDM4E arginine hydroxylation (ROH), LC–MS; type: biochemical; settings: for inhibition of +16 Da product formation: KDM4E with H2a(1–20)
Description: µM (NH4)2Fe(SO4)2, and 50 mM HEPES (pH 7.5). (c,d) Inhibition of arginine hydroxylation (ROH) activity of KDM4E by small molecule 2OG oxygenase inhibitors. ( c ) ROH activity measurements were performed using an LC–MS based assay (Error bars; +/- SD; n = 3 independent assays). Conditions: 10 µM H2a(1 -20) incubated with 1 µM KDM4E, 100 µM sodium L-ascorbate, 10 µM (NH4)2Fe(SO4)2 and 100 µM 2OG.
Reactions wer e quenched after 90 min. […]

KDM4E [3] = biological target: T1, KDM4E; assay: FDH-coupled demethylation assay, Michaelis–Menten kinetics; type: biochemical
Description: The RDM activity of KDM4E with H2a(1–20)R3me2a was compared with demethylation of H3(1–21)R2me2a using a formaldehyde dehydrogenase (FDH) assay[23],[24]. KDM4E catalysed demethylation of H2a R3me2a was less efficient than H3 R2me2a by approximately three-fold under the same conditions (kcat/KM 0.89 hr^−1 µM^−1 for H2a(1–20)R3me2a and 2.58 hr^−1 µM^−1 for H3(1–21)R2me2a).
When LC–MS-based assays were used, time course assays were carried out as described; product formation (%) was plotted against time (s) using GraphPad Prism5 version 5.04. The gradient of each reaction was calculated by fitting a line of linear regression to the first-order region. The resultant slope was used to calculate reaction rate in µM hr^−1. The rate versus peptide concentration (µM) was plotted and the KM, kcat, and Vmax values determined by fitting the Michaelis–Menten equation using GraphPad Prism5 version 5.04. […]
Supplementary Figure 3 KDM4E catalysed H2a(1–20) hydroxylation and H3(1–21)R2me2a demethylation. Michaelis–Menten plots monitoring: ( a) hydroxylation of H2a(1–20) measured using LC– MS (R2 value obtained was 0.5 indicating poor goodness of fit, likely due to limited data at low substrate concentrations due to signal:noise limitations), (b) demethylation of H2a(1–20)R3me2a, and (c) demethylation of H3(1–21)R2me2a measured using the FDH-coupled demethylation assay. […]

[4] = 60 min, 2 µM KDM4A, 10 µM peptide, MALDI–TOF MS, n = 2

Compound | mass shift (KDM4A; [4]) | +16 Da mass shift (hydroxylation) (KDM4D) | +16 Da mass shift (hydroxylation) (KDM4E [1]) | inhibition of +16 Da product formation (KDM4E [2]) | RDM activity (KDM4A) | RDM activity (KDM4E [1]) | −14 Da mass shift (demethylation) (KDM5C) | RDM activity (KDM5C) | further results
SGR GKQ GGKAR AKAKT R SSR - NH - Ahx - K- B i oti n [H2a(1–20) (AB), biotinylated H2a(1–20)] | No mass shifts were observed | potentially | observed |  |  |  |  |  | mass shift (KDM5C): No mass shifts were observed
Oc1cccc2cccnc12 [IOX1, 8-hydroxyquinoline] |  |  |  | inhibited |  |  |  |  | pIC50 (KDM4E [2]): 4.64
SGR[me2s ]GKQGGKARAKAKTRSSR-NH-Ahx-K-Biotin [H2a(1–20)R3me2s (AB), biotinylated H2a(1–20) with symmetrically di-methylated Arg-3] | No mass shifts were observed | potentially | observed |  | to a lesser extent | Evidence for RDM activity | observed | Evidence for RDM activity | −14 Da mass shift (demethylation) (KDM4E [1]): observed
O=C(O)CNC(=O)C(=O)O [NOG, N-oxalylglycine] |  |  |  | inhibited |  |  |  |  | 
AR [ me 2a ] T KQ T AR KST GGKAPR KQ L A [H3(1–21)R2me2a, reference compound] |  |  |  |  |  |  |  |  | kcat/KM (demethylation) (KDM4E [3]; FDH assay, 2 µM KDM4E, 200 µM 2OG, pH 7.5, n = 3 assay repeats): 717 M⁻¹ s⁻¹; kcat/KM relative to KDM substrate H3 K9me3 (fold less) (KDM4E [3]; same FDH assay, H3 K9me3 from ref 7): 13 fold
O=C(O)c1ccnc(C(=O)O)c1 [2,4-PDCA, 2,4-pyridine dicarboxylic acid] |  |  |  | inhibited |  |  |  |  | 
SGR[C i]GKQGGKARAKAKTRSSR-NH-Ahx-K-Biotin [H2a(1–20)Ci3 (AB), biotinylated H2a(1–20) with citrullinated Arg-3] | No mass shifts were observed |  | observed |  |  |  |  |  | mass shift (KDM4D): No mass shifts were observed; mass shift (KDM5C): No mass shifts were observed
SGR[me2a]GKQGGKARAKAKTRSSR-NH-Ahx-K-Biotin [H2a(1–20)R3me2a (AB), biotinylated H2a(1–20) with asymmetrically di-methylated Arg-3, AltaBioscience library] |  | potentially | observed |  | to a lesser extent | Evidence for RDM activity | observed | Evidence for RDM activity | −14 Da mass shift (demethylation) (KDM4A; 60 min, 2 µM KDM4A, 10 µM peptide, 37 °C, MALDI–TOF MS, n = 2): observed; −14 Da mass shift (demethylation) (KDM4D): potentially; −14 Da mass shift (demethylation) (KDM4E [1]): observed
SGR[me1]GKQGGKARAKAKTRSSR-NH-Ahx-K-Biotin [H2a(1–20)R3me1 (AB), biotinylated H2a(1–20) with mono-methylated Arg-3] | No mass shifts were observed | potentially | observed |  | to a lesser extent | Evidence for RDM activity | observed | Evidence for RDM activity | 

Source: publication PMC11603075 (Communications Biology, 2024)
